Where two headings read alike, the source gives them in different places.
Experiments:
CaV3.2 = target: T1, CaV3.2 (Homo sapiens, UniProt O95180); assay: High-throughput CaV3.2/Kir2.3 T-type FLIPR fluorescent assay; assay type: cell-based; conditions: Fluo-4 FLIPR, closed or inactivated state not stated
T1 construct: expressed in transfected cells; host or cells: unnamed doxycycline-inducible cell line
Experimental: Cells were plated in 384-well, clear-bottom, black-walled, poly-D-lysine coated plates (Becton Dickinson, Franklin Lake, N.J.) 2 days prior to use in the FLIPR assay. 100 µL of cells (1.2×10^6 cell/mL) containing doxycyline (Sigma-Aldrich, 1.5 μg/mL; to induce channel expression) were added to each well using a Multidrop (Thermo Scientific, Waltham, Mass.) and were maintained in 5% CO2 incubator at 37° C. On the morning of the assay, cells were transferred to a 5% CO2 incubator at 29° C.
Cells were washed with a wash buffer containing (in mM): 118 NaCl, 18.4 HEPES, 11.7 D-glucose, 2 CaCl2, 0.5 MgSO4, 4.7 KCl, and 1.2 KH2PO4, with the pH adjusted to 7.2 with
NaOH. 4.4 μM of the fluorescent indicator dye Fluo-4 (Invitrogen) prepared in pluronic acid (Sigma-Aldrich) was loaded into the wells and incubated for 45 minutes at 29° C. in 5% CO2. Cells were then rinsed with either a 2 mM KCl closed-state buffer (in mM: 138.5 NaCl, 10 HEPES, 10 D-glucose, 1 CaCl2, and 2 KCl, with the pH adjusted to 7.4 with NaOH) when performing the closed-state assay or 7.6 mM KCl inactivated-state buffer (in mM: 130.9 NaCl, 10 HEPES, 10 D-glucose, 1 CaCl2, and 7.6 mM KCl, with the pH adjusted to 7.4 with NaOH) when performing the inactivated-state assay. Concentration-dependent response curves were generated from 5 mM stock solutions prepared in DMSO (Sigma-Aldrich), diluted in either the 2 mM KCl buffer or 7.6 mM KCl buffer, and incubated for 20 minutes at 29° C. in 5% CO2. Calcium entry was evoked with an addition of either 12 mM KCl stimulation buffer (in mM: 128.5 NaCl, 10 HEPES, 10 D-glucose, 1 CaCl2, and 12 KCl, with the pH adjusted to 7.4 with NaOH) or 14.5 mM KCl stimulation buffer (in mM: 126 NaCl, 10 HEPES, 10 D-glucose, 1 CaCl2, and 14.5 KCl, with the pH adjusted to 7.4 with NaOH) for the closed-state or inactivated-state assay respectively. A change in the Fluo-4 fluorescence signal was assessed using FLIPR^TETRA™ instrument (Molecular Devices, Sunnyvale, Calif.) for 3 minutes following the elevation of extracellular KCl using an illumination wavelength of 470-495 nm with emissions recorded at 515-575 nm.
Concentration-dependent response curves were obtained by comparing the fluorescence signal in the presence of compound and fitted with a logistic function (1) to obtain the concentration that inhibited 50% (IC50) of the RLU signal using OriginPro v.7.5 software (OriginLab, Northampton, Mass.).
To assess the quality of the FLIPR assays the Z-factor (2) was used to quantify the suitability of the assay conditions using the following equation: […]
Data are expressed as mean and standard deviation (SD).

CaV2.2 = target: T2, CaV2.2 (Homo sapiens, UniProt Q00975); assay: High-throughput CaV2.2/Kir2.3 FLIPR fluorescent assay; assay type: cell-based; conditions: Fluo-4 FLIPR, closed or inactivated state not stated, read-out: FLIPR data CaV2.2
T2 construct: expressed in transfected cells; host or cells: unnamed doxycycline-inducible cell line
Outline: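 Doxycycline-induced cells moved to 29 °C on assay day and were loaded with 4.4 μM Fluo-4. They were held in 2 mM KCl (closed state) or 12.5 mM KCl (inactivated state) buffer, pH 7.4, then depolarized with 130 mM KCl. Fluorescence was read 3 min on FLIPR, and IC50 was obtained from logistic fits.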

T1 sequence (O95180 whole entry): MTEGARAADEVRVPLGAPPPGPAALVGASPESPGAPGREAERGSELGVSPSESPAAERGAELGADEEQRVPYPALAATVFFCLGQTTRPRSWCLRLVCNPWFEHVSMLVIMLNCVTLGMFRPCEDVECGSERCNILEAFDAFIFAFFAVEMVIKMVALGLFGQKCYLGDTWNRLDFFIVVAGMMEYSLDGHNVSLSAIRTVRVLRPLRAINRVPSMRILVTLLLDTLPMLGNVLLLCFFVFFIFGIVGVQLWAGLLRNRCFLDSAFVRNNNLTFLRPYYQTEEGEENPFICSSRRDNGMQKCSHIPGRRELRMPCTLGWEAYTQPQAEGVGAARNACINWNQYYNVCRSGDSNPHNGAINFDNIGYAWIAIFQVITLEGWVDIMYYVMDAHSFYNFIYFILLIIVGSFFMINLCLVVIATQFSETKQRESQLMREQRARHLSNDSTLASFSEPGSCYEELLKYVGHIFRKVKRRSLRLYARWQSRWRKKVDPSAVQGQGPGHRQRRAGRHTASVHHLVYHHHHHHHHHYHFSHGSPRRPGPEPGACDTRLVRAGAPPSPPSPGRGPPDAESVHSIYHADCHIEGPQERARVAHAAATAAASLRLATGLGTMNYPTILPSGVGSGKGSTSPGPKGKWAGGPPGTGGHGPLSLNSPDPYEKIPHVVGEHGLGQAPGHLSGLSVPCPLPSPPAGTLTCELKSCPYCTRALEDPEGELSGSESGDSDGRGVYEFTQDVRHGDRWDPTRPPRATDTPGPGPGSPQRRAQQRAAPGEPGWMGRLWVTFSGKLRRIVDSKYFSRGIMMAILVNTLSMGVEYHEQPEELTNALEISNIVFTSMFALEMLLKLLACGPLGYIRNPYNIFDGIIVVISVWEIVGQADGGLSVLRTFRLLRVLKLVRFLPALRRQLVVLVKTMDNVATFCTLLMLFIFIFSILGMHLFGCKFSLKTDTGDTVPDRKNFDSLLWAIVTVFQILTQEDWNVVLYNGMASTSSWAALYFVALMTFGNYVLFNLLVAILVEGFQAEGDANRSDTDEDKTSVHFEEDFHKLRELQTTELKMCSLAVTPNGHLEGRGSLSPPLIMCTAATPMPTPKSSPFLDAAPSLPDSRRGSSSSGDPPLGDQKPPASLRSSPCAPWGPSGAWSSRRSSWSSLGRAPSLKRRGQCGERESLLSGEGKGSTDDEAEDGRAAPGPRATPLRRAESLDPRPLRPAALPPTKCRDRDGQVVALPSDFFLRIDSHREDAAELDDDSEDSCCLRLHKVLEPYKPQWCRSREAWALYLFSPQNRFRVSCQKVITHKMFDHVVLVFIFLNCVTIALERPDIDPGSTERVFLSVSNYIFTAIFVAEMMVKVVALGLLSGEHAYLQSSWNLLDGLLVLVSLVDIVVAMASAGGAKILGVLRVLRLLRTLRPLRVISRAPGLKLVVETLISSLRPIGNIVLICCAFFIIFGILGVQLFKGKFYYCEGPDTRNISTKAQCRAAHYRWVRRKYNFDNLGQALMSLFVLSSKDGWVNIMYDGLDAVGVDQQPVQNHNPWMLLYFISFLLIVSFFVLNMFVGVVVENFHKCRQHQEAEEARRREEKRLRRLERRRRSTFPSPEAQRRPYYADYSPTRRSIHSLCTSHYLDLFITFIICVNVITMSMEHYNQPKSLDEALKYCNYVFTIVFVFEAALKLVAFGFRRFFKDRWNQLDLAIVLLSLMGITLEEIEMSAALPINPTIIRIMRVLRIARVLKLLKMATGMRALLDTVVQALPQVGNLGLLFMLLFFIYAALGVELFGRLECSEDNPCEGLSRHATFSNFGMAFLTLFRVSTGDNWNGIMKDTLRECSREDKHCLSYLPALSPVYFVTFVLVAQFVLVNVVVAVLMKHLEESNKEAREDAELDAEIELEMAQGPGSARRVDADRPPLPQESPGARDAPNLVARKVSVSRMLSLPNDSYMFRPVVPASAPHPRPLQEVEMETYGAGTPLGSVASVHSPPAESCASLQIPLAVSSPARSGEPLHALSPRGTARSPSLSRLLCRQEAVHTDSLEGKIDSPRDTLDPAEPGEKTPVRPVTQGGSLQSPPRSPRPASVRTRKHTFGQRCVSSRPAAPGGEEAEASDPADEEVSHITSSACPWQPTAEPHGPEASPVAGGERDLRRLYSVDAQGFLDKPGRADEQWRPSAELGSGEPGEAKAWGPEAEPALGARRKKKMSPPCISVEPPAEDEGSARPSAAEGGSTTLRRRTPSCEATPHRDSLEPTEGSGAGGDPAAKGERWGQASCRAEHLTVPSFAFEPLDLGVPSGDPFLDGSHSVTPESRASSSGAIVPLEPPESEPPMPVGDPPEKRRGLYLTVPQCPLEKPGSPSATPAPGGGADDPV

IC50 (CaV3.2; Table 5) | IC50 (CaV2.2; Table 5) | IC50 (CaV3.2; Table 4) | IC50 (CaV2.2; Table 4) | Compound
5.16 µM | 1020 nM |  |  | Cc1cc(Cl)ccc1C(=O)NCC(C)(C)S(=O)(=O)c1cccc(C(F)(F)F)c1 [Compound 168, 4-chloro-2-methyl-N-(2-methyl-2-((3-(trifluoromethyl)phenyl)sulfonyl)propyl)benzamide]
6.5 µM | 1530 nM |  |  | CC(C)(CNC(=O)c1ccc(Cl)cc1)S(=O)(=O)c1cccc(C(F)(F)F)c1 [Compound 165, 4-chloro-N-(2-methyl-2-((3-(trifluoromethyl)phenyl)sulfonyl)propyl)benzamide]
9.68 µM | 1310 nM |  |  | COc1ccc(S(=O)(=O)N2CCOCC2)cc1C(=O)NCC(C)(C)S(=O)(=O)c1cccc(C(F)(F)F)c1 [Compound 166, 2-methoxy-N-(2-methyl-2-((3-(trifluoromethyl)phenyl)sulfonyl)propyl)-5-(morpholinosulfonyl)benzamide]
5.32 µM | 3190 nM |  |  | CC(C)(CNC(=O)c1ccc(C(F)(F)F)nc1)S(=O)(=O)c1cccc(C(F)(F)F)c1 [Compound 175, N-(2-methyl-2-((3-(trifluoromethyl)phenyl)sulfonyl)propyl)-6-(trifluoromethyl)nicotinamide]
7.21 µM | 1860 nM |  |  | COc1cc(C)ccc1C(=O)NCC(C)(C)S(=O)(=O)c1cccc(C(F)(F)F)c1 [Compound 170, 2-methoxy-4-methyl-N-(2-methyl-2-((3-(trifluoromethyl)phenyl)sulfonyl)propyl)benzamide]
5.54 µM | 420 nM |  |  | CC(C)(CCN1Cc2nc(C(F)(F)F)ccc2C1=O)S(=O)(=O)c1cccc(C(F)(F)F)c1 [Compound 188, 6-(3-methyl-3-((3-(trifluoromethyl)phenyl)sulfonyl)butyl)-2-(trifluoromethyl)-6,7-dihydro-5H-pyrolo[3,4-b]pyridine-5-one]
5.34 µM | 1310 nM |  |  | CC(C)(CNC(=O)c1cncc(C(F)(F)F)c1)S(=O)(=O)c1cccc(C(F)(F)F)c1 [Compound 176, N-(2-methyl-2-((3-(trifluoromethyl)phenyl)sulfonyl)propyl)-5-(trifluoromethyl)nicotinamide]

The remaining lines, values behind:

Compound | IC50 (CaV3.2; Table 5) | IC50 (CaV2.2; Table 5) | IC50 (CaV3.2; Table 4) | IC50 (CaV2.2; Table 4)
O=C1c2ccc(C(F)(F)F)nc2CN1Cc1ccccc1S(=O)(=O)c1cccc(C(F)(F)F)c1 [Compound 58, 2-(trifluoromethyl)-6-(2-((3-(trifluoromethyl)phenyl)sulfonyl)benzyl)-6,7-dihydro-5H-pyrrolo[3,4-b]pyridin-5-one] |  |  | 1.48 µM | 2680 nM
O=C1c2ccc(C(F)(F)F)nc2CN1Cc1ccc(S(=O)(=O)c2cccc(C(F)(F)F)c2)cc1 [Compound 56, 2-(trifluoromethyl)-6-(4-((3-(trifluoromethyl)phenyl)sulfonyl)benzyl)-6,7-dihydro-5H-pyrrolo[3,4-b]pyridin-5-one] |  |  | 2.66 µM | 310 nM
O=C(NCc1ccc(S(=O)(=O)c2cccc(C(F)(F)F)c2)cc1)[C@H]1CCCCN1 [Compound 80, (R)-N-(4-((3-(trifluoromethyl)phenyl)sulfonyl)benzyl)piperidine-2-carboxamide] |  |  | 8.7 µM | 770 nM
CC(C)Oc1cccnc1C(C)(C)NC(=O)C(C)(C)S(=O)(=O)c1cccc(C(F)(F)F)c1 [Compound 147, N-(2-(3-isopropoxypyridin-2-yl)propan-2-yl)-2-methyl-2-((3-(trifluoromethyl)phenyl)sulfonyl)propanamide] | 3.53 µM | 1390 nM |  | 
O=C(CCC(F)(F)F)NCc1cccc(S(=O)(=O)c2cccc(C(F)(F)F)c2)c1 [Compound 54, 4,4,4-trifluoro-N-(3-((3-(trifluoromethyl)phenyl)sulfonyl)benzyl)butanamide] |  |  | 6.71 µM | 400 nM
CC(C)(C(=O)N1CCC(c2nc3ccccc3[nH]2)CC1)S(=O)(=O)c1cccc(C(F)(F)F)c1 [Compound 138, 1-(4-(1H-benzol[d]imidazol-2-yl)piperidin-1-yl)-2-methyl-2-((3-(trifluoromethyl)phenyl)sulfonyl)propan-1-one] | 5.1 µM | 1480 nM |  | 
O=C(NCc1ccc(S(=O)(=O)c2cccc(C(F)(F)F)c2)cc1)[C@@H]1CCCCN1 [Compound 79, (S)-N-(4-((3-(trifluoromethyl)phenyl)sulfonyl)benzyl)piperidine-2-carboxamide] |  |  | 8.44 µM | 1450 nM
O=C(CCC(F)(F)F)NCc1ccc(S(=O)(=O)c2cccc(C(F)(F)F)c2)cc1 [Compound 53, 4,4,4-trifluoro-N-(4-((3-(trifluoromethyl)phenyl)sulfonyl)benzyl)butanamide] |  |  | 4.1 µM | 340 nM
O=C(NCc1ccc(S(=O)(=O)c2cccc(C(F)(F)F)c2)cn1)c1ccnc(C(F)(F)F)n1 [Compound 98, 2-(trifluoromethyl)-N-((5-((3-(trifluoromethyl)phenyl)sulfonyl)pyridin-2-yl)methyl)pyrimidine-4-carboxamide] |  |  | 9.16 µM | 1490 nM
CC(C)(CNC(=O)c1ccnc(N2CCCC2)c1)S(=O)(=O)c1cccc(C(F)(F)F)c1 [Compound 161, N-(2-methyl-2-((3-(trifluoromethyl)phenyl)sulfonyl)propyl)-2-(pyrrolidin-1-yl)isonicotinamide] | 8.22 µM | 1120 nM |  | 
O=C(NCc1ccc(S(=O)(=O)c2cccc(C(F)(F)F)c2)cn1)c1cnc(C(F)(F)F)nc1 [Compound 97, 2-(trifluoromethyl)-N-((5-((3-(trifluoromethyl)phenyl)sulfonyl)pyridin-2-yl)methyl)pyrimidine-5-carboxamide] |  |  | 4.17 µM | 1930 nM
NC1(CC(=O)NCc2ccc(S(=O)(=O)c3cccc(C(F)(F)F)c3)cc2)CCCCC1 [Compound 86, 2-(1-aminocyclohexyl)-N-(4-((3-(trifluoromethyl)phenyl)sulfonyl)benzyl)acetamide] |  |  | 5.5 µM | 310 nM
COc1ccc(C(=O)NCC(C)(C)S(=O)(=O)c2cccc(C(F)(F)F)c2)cc1Cl [Compound 160, 3-chloro-4-methoxy-N-(2-methyl-2-((3-(trifluoromethyl)phenyl)sulfonyl)propyl)benzamide] | 3.99 µM | 1020 nM |  | 
NC1(C(=O)NCc2ccc(S(=O)(=O)c3cccc(C(F)(F)F)c3)cc2)CCC2(CC1)OCCO2 [Compound 83, 8-amino-N-(4-((3-(trifluoromethyl)phenyl)sulfonyl)benzyl)-1,4-dioxaspiro[4.5]decane-8-carboxamide] |  |  | 9.22 µM | 1310 nM

Reference: patent US20140113898A1, “BISARYLSULFONE AND DIALKYLARYLSULFONE COMPOUNDS AS CALCIUM CHANNEL BLOCKERS” (Zalicus Pharmaceuticals Ltd., priority 2010, published 2014)
